According to the supplement of paper PMC10307832:

Tests used:
Test in all cases: relative viability (nuclei count vs DMSO), 5 days (fraction); higher = more cells survive
201T = test system: 201T
Method in brief: (§1)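 A single step with final 0.05% Triton X-100, 1% formaldehyde and 1 ug/ml Hoechst fixed the cells and stained nuclei 5 days after treatment. Lung cancer cell lines in 1536-well plates had been treated by pin tool the day after seeding with one drug alone or a fixed anchor-drug dose plus five library-drug doses (not always all listed) in √10 steps, and nuclei were counted on 4× images. Relative viability is the ratio of nuclei in treated wells to nuclei in vehicle wells, taken as the median of duplicate plates.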

BEN = test system: BEN
Method in brief: as §1

EKVX = test system: EKVX
Method in brief: as §1

EPLC-272H = test system: EPLC-272H
Method in brief: as §1

H3255 = test system: H3255
Method in brief: as §1

HCC-44 = test system: HCC-44
Method in brief: as §1

HCC-827 = test system: HCC-827
Method in brief: as §1

LCLC-97TM1 = test system: LCLC-97TM1
Method in brief: as §1

LOU-NH91 = test system: LOU-NH91
Method in brief: as §1

LU99A = test system: LU99A
Method in brief: as §1

NCI-H1437 = test system: NCI-H1437
Method in brief: as §1

NCI-H1666 = test system: NCI-H1666
Method in brief: as §1

NCI-H1975 = test system: NCI-H1975
Method in brief: as §1

NCI-H2085 = test system: NCI-H2085
Method in brief: as §1

NCI-H2087 = test system: NCI-H2087
Method in brief: as §1

NCI-H2170 = test system: NCI-H2170
Method in brief: as §1

NCI-H2342 = test system: NCI-H2342
Method in brief: as §1

NCI-H647 = test system: NCI-H647
Method in brief: as §1

NCI-H650 = test system: NCI-H650
Method in brief: as §1

PC-3 [JPC-3] = test system: PC-3 [JPC-3]
Method in brief: as §1

**Q.** Which results are given for `CC(=O)O[C@@]12CO[C@@H]1C[C@H](O)[C@@]1(C)C(=O)[C@H](O)C3=C(C)[C@@H](OC(=O)[C@H](O)[C@@H](NC(=O)OC(C)(C)C)c4ccccc4)C[C@@](O)([C@@H](OC(=O)c4ccccc4)[C@H]21)C3(C)C` [Docetaxel] + NC(=O)Nc1cc(-c2cccc(F)c2)sc1C(=O)N[C@H]1CCCNC1 [AZD7762] (partner 0.2 µM)?
**A.** relative viability (201T; first compound 0.0002 µM): 0.528; relative viability (201T; first compound 0.000632 µM): 0.623; relative viability (201T; first compound 0.002 µM): 0.481; relative viability (201T; first compound 0.006325 µM): 0.388; relative viability (201T; first compound 0.02 µM): 0.246; relative viability (BEN; first compound 0.0002 µM): 0.553; relative viability (BEN; first compound 0.000632 µM): 0.822; relative viability (BEN; first compound 0.002 µM): 0.483; relative viability (BEN; first compound 0.006325 µM): 0.412; relative viability (BEN; first compound 0.02 µM): 0.307; relative viability (EKVX; first compound 0.0002 µM): 0.736; relative viability (EKVX; first compound 0.000632 µM): 0.638; relative viability (EKVX; first compound 0.002 µM): 0.407; relative viability (EKVX; first compound 0.006325 µM): 0.249; relative viability (EKVX; first compound 0.02 µM): 0.132; relative viability (EPLC-272H; first compound 0.000632 µM): 0.191; relative viability (EPLC-272H; first compound 0.002 µM): 0.0912; relative viability (EPLC-272H; first compound 0.006325 µM): 0.149; relative viability (EPLC-272H; first compound 0.02 µM): 0.0556; relative viability (H3255; first compound 0.0002 µM): 0.749; relative viability (H3255; first compound 0.000632 µM): 0.859; relative viability (H3255; first compound 0.002 µM): 0.446; relative viability (H3255; first compound 0.006325 µM): 0.288; relative viability (H3255; first compound 0.02 µM): 0.288; relative viability (HCC-44; first compound 0.0002 µM): 1.06; relative viability (HCC-44; first compound 0.000632 µM): 1.07; relative viability (HCC-44; first compound 0.002 µM): 1.07; relative viability (HCC-44; first compound 0.006325 µM): 0.525; relative viability (HCC-44; first compound 0.02 µM): 0.497; relative viability (HCC-827; first compound 0.0002 µM): 0.154; relative viability (HCC-827; first compound 0.000632 µM): 0.239; relative viability (HCC-827; first compound 0.002 µM): 0.165; relative viability (HCC-827; first compound 0.006325 µM): 0.165; relative viability (HCC-827; first compound 0.02 µM): 0.142; relative viability (LCLC-97TM1; first compound 0.0002 µM): 0.194; relative viability (LCLC-97TM1; first compound 0.000632 µM): 0.221; relative viability (LCLC-97TM1; first compound 0.002 µM): 0.078; relative viability (LCLC-97TM1; first compound 0.006325 µM): 0.0825; relative viability (LCLC-97TM1; first compound 0.02 µM): 0.0475; relative viability (LOU-NH91; first compound 0.0002 µM): 0.748; relative viability (LOU-NH91; first compound 0.000632 µM): 0.662; relative viability (LOU-NH91; first compound 0.002 µM): 0.509; relative viability (LOU-NH91; first compound 0.006325 µM): 0.385; relative viability (LOU-NH91; first compound 0.02 µM): 0.342; relative viability (LU99A; first compound 0.0002 µM): 0.328; relative viability (LU99A; first compound 0.000632 µM): 0.253; relative viability (LU99A; first compound 0.002 µM): 0.194; relative viability (LU99A; first compound 0.006325 µM): 0.228; relative viability (LU99A; first compound 0.02 µM): 0.104; relative viability (NCI-H1437; first compound 0.0002 µM): 1.08; relative viability (NCI-H1437; first compound 0.000632 µM): 1.12; relative viability (NCI-H1437; first compound 0.002 µM): 0.616; relative viability (NCI-H1437; first compound 0.006325 µM): 0.281; relative viability (NCI-H1437; first compound 0.02 µM): 0.141; relative viability (NCI-H1666; first compound 0.0002 µM): 0.692; relative viability (NCI-H1666; first compound 0.000632 µM): 0.695; relative viability (NCI-H1666; first compound 0.002 µM): 0.521; relative viability (NCI-H1666; first compound 0.006325 µM): 0.465; relative viability (NCI-H1666; first compound 0.02 µM): 0.359; relative viability (NCI-H1975; first compound 0.0002 µM): 0.721; relative viability (NCI-H1975; first compound 0.000632 µM): 0.601; relative viability (NCI-H1975; first compound 0.002 µM): 0.389; relative viability (NCI-H1975; first compound 0.006325 µM): 0.24; relative viability (NCI-H1975; first compound 0.02 µM): 0.169; relative viability (NCI-H2085; first compound 0.0002 µM): 0.963; relative viability (NCI-H2085; first compound 0.000632 µM): 0.954; relative viability (NCI-H2085; first compound 0.002 µM): 0.849; relative viability (NCI-H2085; first compound 0.006325 µM): 0.338; relative viability (NCI-H2085; first compound 0.02 µM): 0.309; relative viability (NCI-H2087; first compound 0.0002 µM): 1.23; relative viability (NCI-H2087; first compound 0.000632 µM): 0.822; relative viability (NCI-H2087; first compound 0.002 µM): 0.203; relative viability (NCI-H2087; first compound 0.006325 µM): 0.236; relative viability (NCI-H2087; first compound 0.02 µM): 0.108; relative viability (NCI-H2170; first compound 0.0002 µM): 0.895; relative viability (NCI-H2170; first compound 0.000632 µM): 0.722; relative viability (NCI-H2170; first compound 0.002 µM): 0.581; relative viability (NCI-H2170; first compound 0.02 µM): 0.131; relative viability (NCI-H2342; first compound 0.0002 µM): 0.46; relative viability (NCI-H2342; first compound 0.000632 µM): 0.56; relative viability (NCI-H2342; first compound 0.002 µM): 0.405; relative viability (NCI-H2342; first compound 0.006325 µM): 0.41; relative viability (NCI-H2342; first compound 0.02 µM): 0.363; relative viability (NCI-H647; first compound 0.0002 µM): 0.297; relative viability (NCI-H647; first compound 0.000632 µM): 0.217; relative viability (NCI-H647; first compound 0.002 µM): 0.0746; relative viability (NCI-H647; first compound 0.006325 µM): 0.0816; relative viability (NCI-H647; first compound 0.02 µM): 0.0266; relative viability (NCI-H650; first compound 0.0002 µM): 0.946; relative viability (NCI-H650; first compound 0.000632 µM): 0.485; relative viability (NCI-H650; first compound 0.002 µM): 0.363; relative viability (NCI-H650; first compound 0.006325 µM): 0.28; relative viability (NCI-H650; first compound 0.02 µM): 0.239; relative viability (PC-3 [JPC-3]; first compound 0.0002 µM): 0.761; relative viability (PC-3 [JPC-3]; first compound 0.000632 µM): 0.69; relative viability (PC-3 [JPC-3]; first compound 0.002 µM): 0.441; relative viability (PC-3 [JPC-3]; first compound 0.006325 µM): 0.267; relative viability (PC-3 [JPC-3]; first compound 0.02 µM): 0.169
